The values below come from patent publication US20240376517A1 (THE UNIVERSITY COURT OF THE UNIVERSITY OF EDINBURCH, priority 2021, published 2024).

*1 amine or outer side, *2 acyl side, *3 side chain or, on linkers, in order; H or OH if unused. Where a SMILES comes first, the peptide text is derived from it. [ ]: non-standard residue; d: D form. The star is where a group is joined. ξ: configuration not given here. BODIPY(FL) = CC1=CC(C)=[N+]2C1=Cc1ccc(CCC(=O)*)n1[B-]2(F)F; X1 = CN(C)c1ccc(/N=N/c2ccc(C(=O)*)cc2)cc1; Ethylenediamine = C(CN[*:2])N[*:1]; Ile(3ξ) = CCC(C)[C@H](N)C(=O)O

The test system of one series is mKate-E0771 cancer cells. It counts as cell-based, mouse. The procedure: FIG. 8. […] Cell viability was determined using a commercially available MTT kit (Invitrogen) with values normalized to untreated cells. Data presented as mean values±SEM (2 independent experiments with 3 replicates for each).
The format of series [1] is in vitro ADME, human. The procedure: Probe (H5 or R7) (25 μM) was incubated with human recombinant granzyme B (15 nM) in Granzyme B buffer for 1.5 h at 37° C. Following incubation, the samples were diluted with MeOH, centrifuged and the supernatant injected into the HPLC/MS. Samples were eluted with 0.1% HCOOH in H2O (A) and 0.1% HCOOH in MBCN (B), with a gradient of 0 to 100% B over 5 minutes and an additional isocratic period of 3 minutes with a flow rate of 1.5 mL min^−1. Reactions were monitored from 220-700 nm and percentage cleaved was determined by comparing peak area of the cleaved probe against the intact probe on MassLynx software.
We first sought to address the stability of probe H5 and R7 and in urine from 3 healthy donors to ensure no cross-reactivity occurred with any other biomolecules that may be present in all urine samples. To do this we monitored the fluorescence response of probe H5 and R7 in urine with and without spiked granzyme B (15 nM) and also assessed stability via HPLC analysis. […] (FIG. 11). It should also be noted that HPLC-MS confirmed the cleavage of probe H5 and R7 after the aspartic acid residue (the natural granzyme B cleavage site).

A further series concerns the target hGzmB (Homo sapiens, UniProt P10144). The experiment in a line: HPLC conversion/cleavage of probes by hGzmB. In kind it is biochemical. To be noted: 20 nM hGzmB, 2 h. The text has this:
FIG. 5. HPLC traces of the probe H5 before and after reaction with hGzmB. HPLC chromatogram and mass spectrometry analysis of the probe H5 before and after reaction with increasing concentrations of hGzmB. Mcalc. (intact probe): 1246.6 [M+Na^+]; Mcalc. (cleaved probe): 747.2 [M+H^+].

In series [2] the target is human recombinant granzyme B (Homo sapiens, UniProt P10144). The experiment in a line: HPLC/MS analysis of probe cleavage by granzyme B in urine. To be noted: after 1 h with granzyme B present. In kind it is biochemical. The procedure:
Following incubation, the samples were diluted with MeOH, centrifuged and the supernatant injected into the HPLC/MS. Samples were eluted with 0.1% HCOOH in H2O (A) and 0.1% HCOOH in MBCN (B), with a gradient of 0 to 100% B over 5 minutes and an additional isocratic period of 3 minutes with a flow rate of 1.5 mL min^−1. Reactions were monitored from 220-700 nm and percentage cleaved was determined by comparing peak area of the cleaved probe against the intact probe on MassLynx software.

human recombinant granzyme B, sequence (P10144 21-247): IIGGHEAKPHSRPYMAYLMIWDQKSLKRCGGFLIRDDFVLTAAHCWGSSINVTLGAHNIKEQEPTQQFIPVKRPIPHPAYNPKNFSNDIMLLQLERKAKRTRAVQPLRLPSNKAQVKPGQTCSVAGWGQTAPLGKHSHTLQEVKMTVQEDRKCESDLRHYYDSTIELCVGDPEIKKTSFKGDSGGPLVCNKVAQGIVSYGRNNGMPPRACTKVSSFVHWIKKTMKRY
hGzmB, sequence (P10144 21-247): as above

As for `CCC(C)[C@H](NC(=O)CCC1=[N+]2C(=Cc3c(C)cc(C)n3[B-]2(F)F)C=C1)C(=O)N[C@@H](CCC(=O)O)C(=O)N1CCC[C@H]1C(=O)N[C@@H](CC(=O)O)C(=O)N[C@@H](C)C(=O)N[C@@H](CC(C)C)C(=O)NCCNC(=O)c1ccc(/N=N/c2ccc(N(C)C)cc2)cc1` (stereo partly shown) [H5] ({BODIPY(FL)}-[Ile(3ξ)]EPDAL-{Ethylenediamine-X1}), in the series on mKate-E0771 cancer cells, the “cytotoxicity (cell viability)” value is “not cytotoxic”. Further, the “probe cleaved in the urine sample alone (HPLC)” value in series [1] is listed as “less than 1%”. Further, the “HPLC conversion (20 nM hGzmB, 2 h)” value on hGzmB is 100%. Also, the “conversion to the cleaved probe in urine” value in series [2] is on record as “up to 84%”.
